Measured values taken from patent US20080124385A1, “Methods for Transmembrane Treatment and Prevention of Otitis Media” (Piedmont Pharmaceuticals,LLC., priority 2004, published 2008).

Test system: Haemophilus influenzae
Assay: Chinchilla model of otitis media (middle ear inoculated with Haemophilus influenzae)
Assay type: in vivo, Chinchilla langer
Settings: oral gavage, 20 mg/kg BID for 6 days; 3 animals/group; positive control
Experimental: To establish and evaluate the animal model, each chinchilla was inoculated with Haemophilus influenzae directly into the middle ear of each ear by transbullar injection at a concentration of 100 cfu in a volume of 0.2 mL. Each chinchilla was given an otoscope ear exam prior to being placed on study. Dosing with a composition of the invention or control oral amoxicillin began approximately 48 hours after the bacterial inoculation. All animals were administered Buprenorphine 0.05 mg/kg twice a day subcutaneously for analgesia for the duration of the study.
At the end of the dosing period (8 days after bacterial inoculation), each animal was euthanized, their ear canals washed with saline, and examined. In particular, samples from the middle ear from each chinchilla were collected. One ear sample was cultured overnight per laboratory procedures. Approximately 24 hours after the samples plated out, they were counted and the colony forming units (cfu) recorded.
The positive control article (amoxicillin) was administered orally by gavage to three chinchillas twice per day for 6 days, approximately 8 hours apart. 2, 4 or 6 drops of ofloxacin 0.3% liposome formulation or ciprofloxacin 0.3% liposome formulation were administered to two groups of three chinchillas each as a maximal feasible dose for these animals.

CC1(C)S[C@@H]2[C@H](NC(=O)[C@H](N)c3ccc(O)cc3)C(=O)N2[C@H]1C(=O)O [Amoxicillin, amoxicillin]
Active infection present after 6 days: No active infection present in any animal
